Test results from patent publication US9067972B2, “Skin aging-inhibiting peptide” (CALPIS CO., LTD., priority 2008, dated 2015).
Peptide text beside a SMILES is read from it.

Tested on: Caco-2 cells
Protocol: Caco-2 cells were obtained from the American Type Culture Collection. Cells with a passage number of 40 to 70 were used for the permeation test. The culture medium comprised Dulbecco's modified Eagle's medium (Sigma) supplemented with fetal bovine serum (10%, AGC TECHNO GLASS CO., LTD.), a non-essential amino acid solution (1%, Gibco), and penicillin-streptomycin (each 200 IU/ml, 200 μg/ml, Gibco). The Caco-2 cells were cultured under humidified conditions at 37° C. and 5% CO2, and subcultured for every 4 to 5 days. For the permeation test, the cells were cultured on a membrane filter in a 12-transwell (Millipore). To a basal side 1.5 ml of the culture medium was added and 0.5 ml of culture medium was added to an apical side, and the cells were cultured for approximately 2 weeks. The enzymatic hydrolysate of the fermented milk was added to the apical side of the cultured Caco-2 cells. Peptides which were permeated to the basal side were collected. For comparison, the same test was performed on a digestive tract enzyme-degraded product of non-fermented reconstituted skimmed milk with a reconstitution ratio of 8.9%.
The peptides which were permeated to the basal solution were subjected to solid phase extraction (SepPak tC18, Waters) to thereby concentrate the peptide component and then the peptides were determine by using a high-performance liquid chromatograph tandem mass spectrometer (LCMS-IT-TOF, Shimadzu Corporation). PEAKS (Bioinformatics Solutions Inc) was used to analyze the data. Based on the information obtained from MS/MS, de novo sequencing was performed to determine the amino acid sequence of the permeated peptides. Comparison was made between the detected peptides and peptides contained in a digestive tract enzyme-hydrolyzed product of a milk protein.

Permeation through Caco-2 monolayer (apical to basal side) | SMILES
permeable | CC(C)[C@H](N)C(=O)N1CCC[C@H]1C(=O)N1CCC[C@H]1C(=O)N[C@@H](Cc1ccccc1)C(=O)O [Val-Pro-Pro-Phe] (H-VPPF-OH; N-terminus and C-terminus assumed)
permeable | CC[C@H](C)[C@H](N)C(=O)N1CCC[C@H]1C(=O)N1CCC[C@H]1C(=O)O [Ile-Pro-Pro]
permeable | NC(=O)CC[C@H](NC(=O)[C@@H]1CCCN1C(=O)[C@@H]1CCCN1C(=O)[C@@H](N)Cc1ccccc1)C(=O)O [Phe-Pro-Pro-Gln] (H-FPPQ-OH; N-terminus and C-terminus assumed)
permeable | CC(C)C[C@H](N)C(=O)N1CCC[C@H]1C(=O)N1CCC[C@H]1C(=O)N[C@H](C(=O)O)[C@@H](C)O [Leu-Pro-Pro-Thr] (H-LPPT-OH; N-terminus and C-terminus assumed)
permeable | CC(C)[C@H](NC(=O)[C@@H]1CCCN1)C(=O)N[C@H](C(=O)N[C@H](C(=O)N1CCC[C@H]1C(=O)N1CCC[C@H]1C(=O)O)C(C)C)C(C)C [Pro-Val-Val-Val-Pro-Pro] (H-PVVVPP-OH; N-terminus and C-terminus assumed)
permeable | CC[C@H](C)[C@H](NC(=O)[C@@H](N)CC(N)=O)C(=O)N1CCC[C@H]1C(=O)N1CCC[C@H]1C(=O)N[C@@H](CC(C)C)C(=O)O [Asn-Ile-Pro-Pro-Leu] (H-NIPPL-OH; N-terminus and C-terminus assumed)
permeable | CC[C@H](C)[C@H](N)C(=O)N1CCC[C@H]1C(=O)N1CCC[C@H]1C(=O)N[C@@H](CC(C)C)C(=O)O [Ile-Pro-Pro-Leu] (H-IPPL-OH; N-terminus and C-terminus assumed)
permeable | CC(C)[C@H](N)C(=O)N1CCC[C@H]1C(=O)N1CCC[C@H]1C(=O)O [Val-Pro-Pro]
